From US9238040B2, “Chemoprevention of colorectal cancer by mesalamine/sulfasalazine” (RUTGERS, THE STATE UNIVERSITY OF NEW JERSEY, priority 2005, dated 2016)

How the values were obtained:
[1] = tested on: TC22; assay: FACS of TC22 expression in LS180 colon cancer cells (antibody TC22-4); assay type: cell-based, human; details: 4 hours, Serum Free Media
Description: Specific monoclonal antibodies, CG3 for hTM5 and TC22-4 for TC22 were used against the cells in a fluorescent activated cell sorter (FACS). Reverse transcriptase PCR (RT-PCR) was utilized to quantify the transcription of hTM5 and TC-22. […] Dishes were washed with 10 ml PBS 3 times. Cells were detached with 0.25% trypsin-EDTA and collected. All cells were >90% viable. The cells were washed and then fixed by using 4% paraformaldehyde for 5 minutes. Cells were washed 2 times. Cells were then resuspended and the first antibody was added: MOPC IgM(0.5 mg/mL) 1 μl (1:100), MOPCIgG(0.5 mg/mL) 1 μl (1:100), CG3 IgM(2.4 mg/mL) 1 μL of (2+3 μL Buffer) (1:250) for hTM5, TC22-4 IgG(30 mg/mL) 1 μL of (1+9 uL Buffer) (1:1000) for TC22. The suspension was incubated at 4° C. for 30 minutes, shaken and washed (2 times) with 30 vol. of PBS/0.5 BSA/2 mm EDTA. The second antibody was added: 1 μl tube (1:100) Cy2 (Cyanine)-conj. G-α-M IgM or Cy2 (Cyanine)-conj. G-α-M IgM, then incubated at 4° C. for 30 minutes, shaken and washed (2 times) with 100 vol. buffer 2 times. The cells were then resuspended in 1 ml wash buffer. FACS was used to detect hTM5 and TC22 expression within 1 hour. […] The graphs show the number of cells as a function of fluorescence intensity. LM1 represents the percent of cells present but not expressing TC22. LM2 represents the percent of cells containing TC22.

[2] = tested on: LS180 cells; assay: Microarray analysis of gene expression in LS180 cells; assay type: cell-based, human; details: 200 mM, 4 hours and 24 hours, compared with 5-ASA untreated LS180 cells

## Nc1ccc(O)c(C(=O)O)c1 [5-ASA, 5-Aminosalicylic Acid]
[1]
  expression of TC22 (FACS, FIG. 1f): reduced the expression of TC22
[2]
  Number of genes down-regulated: >385
  Number of genes up-regulated: >194
